Data on ten compounds can be found in patent US7622498B2, “Sugar derivatives comprising oxiranes or α, β-unsaturated δ-lactones, process for their preparation and their utilisation as pesticides” (Instituto Politecnico de Santarem/Escoal Superior Agraria, priority 2004, dated 2009).

Values after ≈ are worked out from the molar mass of the structure shown. “Also recorded” adds a separate entry of the source.

One data set relates to adult fruit flies. Briefly: Method B: second method for topical treatment of adult fruit flies. It is filed as in vivo, Drosophila melanogaster. The settings on record: topical 1 μL acetone solution, 24 hour mortalities. The protocol: Second Method for Topical Treatment of Adult Fruit Flies
Different dilutions of the compounds in acetone were prepared and applied to individual fruit flies using a Gilson piston micropipette.
Individual flies were held in padded forceps and 1 μL of acetone solution was applied. The acetone was allowed to evaporate before placing the fly into the vial for observation, kept at 30±1° C., following the standard methodology.
(§1) Dosages used in insect treatments were based upon the amount of compound applied to each insect. For the shrimps the final concentrations of the compounds in the immersion brine were used.
(§2) The 24 hour mortalities were used to calculate the LD50/LC50 using regression analysis of the probability percent mortality (probit) against log dose/concentration.^30 This was calculated using PoloPC software (LeOra Software, Berkeley, Calif., 1994).

Data set [1] relates to brine shrimp A. salina larvae. In words: Method F: immersion bioassay of brine shrimp larvae in brine. The settings on record: brine shrimp larvae immersed in brine, 24 hour mortalities. In kind it is in vivo. The protocol:
(§3) Immersion Bioassay of Brine Shrimp A. salina Larvae in Brine
(§4) Freshly hatched brine shrimps were prepared by adding aquarium brine shrimp eggs to salt water (15 g sea salt per litre water). The following day hatchlings were separated from eggs and empty egg cases, using their phototropic movement and a Pasteur pipette.
(§5) Into each of a set of small glass vials was pipetted 195 μL of brine containing 5 shrimp larvae, using a micropipette. The solution of the test compound in 5 μL acetone was added, the vial closed and kept at 30±1° C. for observation.
(§6) Dead and alive shrimps were counted, at 1 and 24 hours after treatment, using a microscope. Six concentrations and a control were used with 10 shrimps treated.
(§7) A blank test was performed for comparison of the results.
as §1, §2

In data set [2] the test system is adult fruit fly (D. melanogaster). In words: Method A: topical treatment of adult fruit fly. It is filed as in vivo, Drosophila melanogaster. Conditions: for LD50: Method A, topical 0.2 μL acetone solution, adult fruit flies, 24 hour mortalities, probit regression; for activity against adult fruit flies (in words): topical treatment, from LD50 values. The protocol: Topical Treatment of Adult Fruit Fly (D. melanogaster)
A culture of fruit flies (D. melanogaster) was used in the production of adult flies (approx 0.22 mg) of about seven days.
Serial dilutions of the compounds were prepared in acetone, and volumes of approximately 0.2 μL were applied to the ventral surface of each insect, using a calibrated PAX 100 microapplicator and a 1 mL syringe.
The fruit flies, in groups of 5, were anaesthetised using carbon dioxide. Prior to recovery the flies were placed in a containing vial and kept at 30±1° C., for observations of mortality at 1, 2, 3 and 24 hours after treatment.
For this purpose solutions of 6 different concentrations and a control were employed in groups of 12 and 20 insects. Control mortalities were normally zero but occasionally rose to 5-10%.
as §1, §2
In the table are also given the confidence intervals at 95% for the LD50 values, the number of organisms tested, the slope obtained by linear regression and the index g (of significance). Data are considered satisfactory if g is substantially less than 1 and seldom greater than 0.4.^31
As regards the confidence intervals for LD50, the indication (90%) means that the intervals were calculated at 90% and not at 95%.

Another data set deals with fruit fly larvae. In words: Method D: topical treatment of fruit fly larvae. It is filed as in vivo, Drosophila melanogaster. The settings on record: for LD50: Method D, topical 0.2 μL acetone solution, second and third instar fruit fly larvae; for toxicity to fruit fly larvae compared with adult flies (in words): topical treatment of larvae, from LD50 values. The protocol: Topical Treatment of Fruit Fly Larvae
Fruit fly larvae were separated from the growing medium and second and third instars were topically treated with 0.2 μL acetone solutions of the compounds using a PAX microapplicator.
Larvae were held in padded forceps for dosing and then placed on moistened filter paper, at 30±1° C., for observation.
as §1, §2

The test system of data set [3] is house fly adults (M. domestica). In words: Method E: topical treatment of house fly adults. Conditions: topical 1 μL acetone solution, adult house flies, strain Cooper. In kind it is in vivo, Musca domestica. The protocol:
Topical Treatment of House Fly Adults (M. domestica)
A culture of an insecticide-susceptible strain, Cooper, was established. Three-day-old adult house flies (body weight about […]) were anaesthetised with carbon dioxide. Using the PAX microapplicator, a volume of 1 μL of acetone solution of the test compounds was applied to the dorsal cuticle, holding the fly in padded forceps.
Groups of flies were placed into closed vials, kept at 30±1° C., for observation.
as §1, §2

Data set [4] in a line: Method F: immersion bioassay of brine shrimp larvae in brine. It is filed as in vivo. The settings on record: Artemia salina (brine shrimp) larvae, in vivo, brine shrimp larvae immersed in brine, 24 hour mortalities. The protocol: as §3, §4, §5, §6, §7, §1, §2
In data set [5] the test system is glasshouse white fly (T. vaporariorum). In words: Method G: foliar treatment of glasshouse white fly on tomato leaves. It is filed as in vivo, Trialeurodes vaporariorum. Conditions: for % Control of White Fly: sprayed on infested tomato leaves, 14 hours; for insecticidal efficacy against adult white fly (in words): spraying infested tomato leaves. The protocol:
Method G Foliar Treatment of Glasshouse White Fly (T. vaporariorum) Seedlings of tomato plants were infested with adult white fly. Selected leaves of the tomato plants were excised and carefully trimmed to 3 leaflets without disturbing the infestation. These were placed in glass tubes containing water and the leaflets were then sprayed on both sides with a small sprayer delivering for each one 200 μL of a solution of the test compound dissolved in 30% acetone in water. Controls were sprayed with the solvent alone. Counts of insects on the individual leaflets were made immediately after spraying and then at 14 hours following. Where single dose treatments were used (in the case of whitefly assays), no statistics are available and the results are expressed as percent effect. Five compounds were tested, which were applied spraying 600 μL of each compound solution (prepared according to method G) on of leaves of tomato plants infested with a known number of adult whitefly. After 14 hours, the number of dead insects (or eventually of insects that disappeared) was counted. These assays were performed at room temperature, between 20 and 25° C.

The LC50 is the concentration lethal to half of the exposed cells or organisms. Low readings indicate a more lethal substance, high ones a less lethal substance. In the data set with adult fruit flies, `CC1=C[C@H]([C@H]2O[C@@H]3OC(C)(C)O[C@@H]3[C@@H]2OCc2ccccc2)OC1=O` [Compound 2, 3-O-benzyl-6,7-dideoxy-1,2-O-isopropylidene-7-methyl-α-D-alo-oct-6-enefuranurono-8,5-lactone] registered an LD50 of 0.00398 μg/insect. For the same compound, the 50% lethal concentration (LC50) in data set [1] is 64.30 µg/mL (≈ 186 µM). In addition, in data set [2], the LD50 is reported as 2.27 × 10^−6 μg/insect and the “activity against adult fruit flies (in words)” value (shortened to “activity”) is on record as “extremely active”.

On to `CC(=O)OC[C@H]1OC(=O)C(Br)=C[C@@H]1OC(C)=O` [Compound 5, 4,6-di-O-acetyl-2-bromo-2,3-dideoxy-D-erythro-hex-2-enone-1,5-lactone], for which the results for the LD50 (with fruit fly larvae; in data set [3]; in data set [2]) were 4.75 μg/insect, 1.065 μg/insect and 0.00016 μg/insect, respectively. In addition, the “toxicity to fruit fly larvae compared with adult flies (in words)” value in the data set with fruit fly larvae is “less toxic for larvae than for adult flies”. In addition, in data set [1], the LC50 was 38.36 µg/mL (≈ 125 µM).

Compound `O=[N+]([O-])NC1=NCCN1Cc1ccc(Cl)nc1` [Imidacloprid, imidacloprid, reference compound] yielded a median lethal concentration (LC50) at 24 h in data set [4] of 0.0312 µg/mL (≈ 0.122 µM). Besides, the LD50 in data set [2] is recorded as 0.01253 μg/insect.

In the case of “(7R)-/(7S)-3,6,7-Trideoxy-1,2-O-isopropylidene-7-methyl-7-phenylselenyl-α-D-ribo-octofuranurono-8,5-lactone [Compound 7]”, the results for the LD50 (in the data set on fruit fly larvae; in data set [2]) were 0.968 μg/insect and 0.0002 μg/insect, respectively. Further, the median lethal concentration (LC50) in data set [1] was 261.04 µg/mL. Also, the “% Control of White Fly” value in data set [5] (concentration 4.8 μg/mL) is recorded as 0%.

Compound `CC1(C)O[C@H]2O[C@H]([C@H]3C=CC(=O)O3)[C@@H](OCc3ccccc3)[C@H]2O1` [Compound 3, 3-O-benzyl-6,7-dideoxy-1,2-O-isopropylidene-α-D-alo-oct-6-enefuranurono-8,5-lactone] showed a 50% lethal concentration (LC50) in data set [1] of 144.71 µg/mL (≈ 435 µM). The “% Control of White Fly” value in data set [5] (concentration 1.3 μg/mL) was found to be 0%. Moreover, in data set [2], the LD50 is 5.02 × 10^−6 μg/insect and the “activity” value was “extremely active”.

`CC1(C)O[C@H]2O[C@H]([C@H]3C=CC(=O)O3)[C@H](OCc3ccccc3)[C@H]2O1` [Compound 4, 3-O-benzyl-6,7-dideoxy-1,2-O-isopropylidene-α-D-gluco-oct-6-enefuranurono-8,5-lactone] had an LC50 in data set [1] of 358.92 µg/mL (≈ 1080 µM). Further, the “% Control of White Fly” value in data set [5] (concentration 2.5 μg/mL) worked out at 50%. Besides, the “insecticidal efficacy against adult white fly (in words)” value in data set [5] is reported as “show efficacy as insecticides; also recorded: promising for activity against the white fly”. In addition, in data set [2], the LD50 stood at 0.00012 μg/insect and the “activity” value was “high toxicity against adult fruit flies”.

Regarding `CO[C@H]1O[C@H]([C@@H]2CO2)[C@@H]2O[C@H]12` [Compound 9, Methyl 2,3:5,6-Dianhydro-β-L-gulofuranoside], the LC50 in data set [1] is 671.50 µg/mL (≈ 4250 µM). In addition, the “% Control of White Fly” value in data set [5] (concentration 2.5 μg/mL) is on record as 85%. The “insecticidal efficacy against adult white fly (in words)” value in data set [5] is listed as “show efficacy as insecticides; also recorded: promising for activity against the white fly”. In data set [2], the LD50 worked out at 0.00003 μg/insect and the “activity” value is on record as “extremely active; also recorded: high toxicity against adult fruit flies”.

As for `CC1(C)OC2OC(C3CC(C)([Se]c4ccccc4)C(=O)O3)C(OCc3ccccc3)C2O1` [Compound 8, (7R)-/(7S)-3-O-Benzyl-6,7-dideoxy-1,2-O-isopropylidene-7-methyl-7-phenylselenyl-α-D-gluco-octofuranurono-8,5-lactone], the “toxicity to fruit fly larvae compared with adult flies (in words)” value in the data set with fruit fly larvae is given as “less toxic for larvae than for adult flies”. The 50% lethal concentration (LC50) in data set [1] was found to be 220.41 µg/mL (≈ 438 µM). Besides, the LD50 in data set [3] is 0.644 μg/insect; in data set [2], 0.00037 μg/insect.

Consider `CC1=C[C@H]([C@H]2O[C@@H]3OC(C)(C)O[C@@H]3[C@H]2OCc2ccccc2)OC1=O` [Compound 1, 3-O-benzyl-6,7-dideoxy-1,2-O-isopropylidene-7-methyl-α-D-gluco-oct-6-enefuranurono-8,5-lactone], for which the 50% lethal concentration (LC50) in data set [1] came to 100.62 µg/mL (≈ 290 µM). Moreover, in data set [2], the LD50 is 0.00002 μg/insect and the “activity” value is listed as “extremely active”.

“methyl (7R)-/(7S)-2,3-anhydro-6,7-dideoxy-7-methyl-7-phenylselenyl-α-gulo-octofuranurono-8,5-lactone [Compound 6]”: the LC50 in data set [1] came to 125.48 µg/mL. Moreover, in data set [5] (concentration 1.3 μg/mL), the “% Control of White Fly” value is 0%. The same compound came in with an LD50 in data set [2] of 0.00015 μg/insect.
